Measured values published in patent US20210322508A1, “PEPTIDES AND COMPOSITIONS FOR TARGETED TREATMENT AND IMAGING” (SIGNABLOK, INC., priority 2018, published 2021).
Residues, ends and D or L forms follow the SMILES beside them.

Columns and labels:
[1] = test system: intratumoral macrophages (F4/80); experiment: Immunohistochemistry of intratumoral macrophages (F4/80) in PC xenografts; type: in vivo, mouse; conditions: PC xenografts (shown for BxPC-3)
Description: All staining and quantification procedures were performed by HistoTox Laboratories. Briefly, mice containing AsPC-1, BxPC-3, and Capan-1 tumors were humanely euthanized for necropsy at the end of the study. Excised tumors were fixed using 10% neutral buffered formalin for 1-2 days, processed for paraffin embedding, and sectioned at […]. Antigen retrieval for F4/80 was achieved using Proteinase K (Dako North America). Sections were blocked for peroxidase and alkaline phosphatase activity using Dual Endogenous Enzyme Block (Dako North America). Sections were then incubated with Protein Block (Dako North America) followed by primary antibody F4/80 (1:2000, AbD Serotec) diluted using 1% bovine serum albumin in Tris-buffered saline. […] Quantitative analysis of intratumoral F4/80 staining was determined using Visiopharm software.
Mice containing BxPC-3 tumors were humanely euthanized for necropsy at the end of the study. […] Quantitative analysis of intratumoral F4/80 staining was determined using Visiopharm software.
Immunohistochemistry. All staining and quantification procedures were performed by HistoTox Labs. […] Quantitative analysis of intratumoral F4/80 staining was determined using Visiopharm software.

TREM-1 = target: T1, TREM-1 (Mus musculus, UniProt Q9JKE2); experiment: colocalization of labeled peptide with TREM-1 in the cell membrane (images); type: cell-based; conditions: GE31 delivered to macrophages by SLP, G-KV21 pre-incubated with HDL, J774 cells
T1 construct: BALB/c murine macrophage J774A.1 cells were grown at 37° C. in six-well tissue culture plates containing glass coverslips; endogenous in cells; host or cells: BALB/c murine macrophage cell line J774A.1 (ATCC)

[2] = test system: mice with oxygen-induced retinopathy (OIR); experiment: oxygen-induced retinopathy (OIR) in mice; type: in vivo
Text: The membrane was probed for TREM-1, reprobed for CSF1 and then for β-actin.

[3] = penetration of the blood-brain and blood-retinal barrier after systemic administration; type: in vivo; conditions: rhodamine B-labeled; mice intraperitoneally; rats and rabbits intravenously (G-KV21)
healthy C57BL/6 mice = experiment: Mouse tolerability studies; type: in vivo; conditions: free form, i.p., healthy mice
Description: Naïve, female C57BL/6 mice at 8 to 10 weeks of age (18 to 21 g) from the Jackson Laboratory were used. […] Clinical observations and body weights were made twice daily.
Naïve, female C57BL/6 mice at 8 to 10 weeks of age (18 to 21 g) from the Jackson Laboratory were used. Animals were randomly grouped (5 mice per group) and i.p. injected with 400 mg/kg G-HV21, G-KV21 or G-TE21. Clinical observations and body weights were made twice daily.

[4] = Crossing of blood-retinal and blood-brain barrier (rho B-labeled); conditions: mouse, in vivo
Description: Litters of C57BL/6J (Jackson Laboratory, Bar Harbor, Me.) neonatal mice and nursing dams were exposed to a hyperoxia environment (75% oxygen) from postnatal day 7 (P7) to P12 and returned to normoxia until P17. The hyperoxia exposure causes degeneration of the immature retinal vessels. […] Beginning on P7, mice were treated until day P17 by daily i.p. injections of GF9, GF9-SLP, TREM-1/TRIOPEP-sSLP or vehicle (phosphate-buffered saline, pH 7.4; PBS). […] In another subset of experiments, rho B-labeled Gd-containing sSLP were used to confirm the ability of these targeted SLP to cross the BRB in other species (rats and rabbits). In another subset of experiments, neonatal mice and nursing dams were not subjected to a hyperoxia environment and reared in room air (RA). At P17, all mice were humanely sacrificed and their retinas were collected.
Litters of C57BL/6J (Jackson Laboratory, Bar Harbor, Me.) neonatal mice and nursing dams were exposed to a hyperoxia environment (75% oxygen) from postnatal day 7 (P7) to P12 and returned to normoxia until P17. The hyperoxia exposure causes degeneration of the immature retinal vessels. […] Beginning on P7, mice were treated until day P17 by daily i.p. injections of G-KV21, G-TE21 at indicated doses or vehicle (PBS, pH 7.4). In certain embodiments, neonatal mice and nursing dams were not subjected to a hyperoxia environment and reared in room air. […]

[5] = comparison of therapies (cancer indications); conditions: shown for cancer indications

T1 sequence (O54885 22-114 partner): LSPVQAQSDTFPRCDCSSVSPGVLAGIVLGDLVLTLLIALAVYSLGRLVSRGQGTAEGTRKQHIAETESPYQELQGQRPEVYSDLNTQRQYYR
T1 sequence (Q9JKE2 21-230): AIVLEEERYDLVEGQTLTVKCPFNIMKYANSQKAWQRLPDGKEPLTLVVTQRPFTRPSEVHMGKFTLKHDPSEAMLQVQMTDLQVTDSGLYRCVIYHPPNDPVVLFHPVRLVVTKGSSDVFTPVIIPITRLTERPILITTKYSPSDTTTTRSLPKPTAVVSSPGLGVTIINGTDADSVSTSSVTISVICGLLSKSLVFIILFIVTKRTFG

CC(C)C[C@H](NC(=O)[C@H](Cc1ccccc1)NC(=O)CN)C(=O)N[C@@H](CO)C(=O)N[C@@H](CCCCN)C(=O)N[C@@H](CO)C(=O)N[C@@H](CC(C)C)C(=O)N[C@H](C(=O)N[C@@H](Cc1ccccc1)C(=O)NCC(=O)N[C@@H](CCC(=O)O)C(=O)N[C@@H](CCC(=O)O)C(=O)N[C@@H](CC[S+](C)[O-])C(=O)N[C@@H](CCCNC(=N)N)C(=O)N[C@@H](CC(=O)O)C(=O)N[C@@H](CCCNC(=N)N)C(=O)N[C@@H](C)C(=O)N[C@@H](CCCNC(=N)N)C(=O)N[C@@H](C)C(=O)N[C@@H](Cc1c[nH]cn1)C(=O)N[C@H](C(=O)O)C(C)C)C(C)C (some centres unmarked) [G-HV21] (HELM PEPTIDE1{G.F.L.S.K.S.L.V.F.G.E.E.[CS(=O)CC[C@H](N[*:1])C(=O)[*:2]].R.D.R.A.R.A.H.V}$$$$V2.0)
intratumoral macrophage content / infiltration (F4/80) [1]: reduces the macrophage infiltration into the tumor

CC(C)C[C@H](NC(=O)[C@H](Cc1ccccc1)NC(=O)CN)C(=O)N[C@@H](CO)C(=O)N[C@@H](CCCCN)C(=O)N[C@@H](CO)C(=O)N[C@@H](CC(C)C)C(=O)N[C@H](C(=O)N[C@@H](Cc1ccccc1)C(=O)N[C@@H](Cc1c[nH]c2ccccc12)C(=O)N[C@@H](CCC(N)=O)C(=O)N[C@@H](CCC(=O)O)C(=O)N[C@@H](CCC(=O)O)C(=O)N[C@@H](CC[S+](C)[O-])C(=O)N[C@@H](CCC(=O)O)C(=O)N[C@@H](CC(C)C)C(=O)N[C@@H](Cc1ccc(O)cc1)C(=O)N[C@@H](CCCNC(=N)N)C(=O)N[C@@H](CCC(N)=O)C(=O)N[C@@H](CCCCN)C(=O)N[C@H](C(=O)O)C(C)C)C(C)C (some centres unmarked) [G-KV21] (HELM PEPTIDE1{G.F.L.S.K.S.L.V.F.W.Q.E.E.[CS(=O)CC[C@H](N[*:1])C(=O)[*:2]].E.L.Y.R.Q.K.V}$$$$V2.0)
colocalization with TREM-1 in the cell membrane (TREM-1): colocalization
pathological retinal neovascularization (RNV) ([2]; 25 mg/kg GF9, 2.5 mg/kg GF9-sSLP, 4 mg/kg GA/E31-sSLP where stated): significantly suppresses pathological RNV
retinal tissue expression of TREM-1 and CSF-1 (M-CSF) ([2]; P17, Western blot): inhibits tissue expression of TREM-1 and M-CSF
penetration of the BBB and BRB [3]: penetration of the BBB and BRB

CC(C)C[C@H](NC(=O)[C@H](Cc1ccccc1)NC(=O)CN)C(=O)N[C@@H](CO)C(=O)N[C@@H](CCCCN)C(=O)N[C@@H](CO)C(=O)N[C@@H](CC(C)C)C(=O)N[C@H](C(=O)N[C@@H](Cc1ccccc1)C(=O)O)C(C)C [GF9] (H-GFLSKSLVF-OH)
dose at which non-toxic and well tolerated (healthy C57BL/6 mice): at least 300 mg/kg
passage of blood-retinal barrier (BRB) and blood-brain barrier (BBB) [4]: pass the blood-retinal barrier (BRB) and blood-brain barrier (BBB)
Acute toxicity [5]: LOW
